Test results as given in patent US20110183963A1 (priority 2009, published 2011).

What was measured:
human NET = human NET (Homo sapiens, UniProt P23975); conditions: relative to quetiapine; cited from earlier work
5-HT1A receptor = target: T1, 5-HT1A receptor (Homo sapiens, UniProt P08908); conditions: relative to quetiapine; cited from earlier work
T1 sequence (P08908 1-422): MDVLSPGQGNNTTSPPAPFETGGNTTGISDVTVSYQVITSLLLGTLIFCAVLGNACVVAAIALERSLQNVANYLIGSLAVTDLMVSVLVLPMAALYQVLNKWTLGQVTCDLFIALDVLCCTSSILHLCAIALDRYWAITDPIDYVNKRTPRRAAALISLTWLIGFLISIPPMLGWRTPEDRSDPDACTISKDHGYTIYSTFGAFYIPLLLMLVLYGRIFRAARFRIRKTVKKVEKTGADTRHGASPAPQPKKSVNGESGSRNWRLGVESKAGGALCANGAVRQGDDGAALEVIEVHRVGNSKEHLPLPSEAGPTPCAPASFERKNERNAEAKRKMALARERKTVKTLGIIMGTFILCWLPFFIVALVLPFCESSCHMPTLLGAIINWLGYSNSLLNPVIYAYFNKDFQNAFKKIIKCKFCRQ

[1] = to be dosed efficiently via oral gavage in rats
[2] = cited from earlier work
leptin = conditions: chronic oral administration for a period of 6 weeks; cited from earlier work

Chain of human NET (P23975 whole entry): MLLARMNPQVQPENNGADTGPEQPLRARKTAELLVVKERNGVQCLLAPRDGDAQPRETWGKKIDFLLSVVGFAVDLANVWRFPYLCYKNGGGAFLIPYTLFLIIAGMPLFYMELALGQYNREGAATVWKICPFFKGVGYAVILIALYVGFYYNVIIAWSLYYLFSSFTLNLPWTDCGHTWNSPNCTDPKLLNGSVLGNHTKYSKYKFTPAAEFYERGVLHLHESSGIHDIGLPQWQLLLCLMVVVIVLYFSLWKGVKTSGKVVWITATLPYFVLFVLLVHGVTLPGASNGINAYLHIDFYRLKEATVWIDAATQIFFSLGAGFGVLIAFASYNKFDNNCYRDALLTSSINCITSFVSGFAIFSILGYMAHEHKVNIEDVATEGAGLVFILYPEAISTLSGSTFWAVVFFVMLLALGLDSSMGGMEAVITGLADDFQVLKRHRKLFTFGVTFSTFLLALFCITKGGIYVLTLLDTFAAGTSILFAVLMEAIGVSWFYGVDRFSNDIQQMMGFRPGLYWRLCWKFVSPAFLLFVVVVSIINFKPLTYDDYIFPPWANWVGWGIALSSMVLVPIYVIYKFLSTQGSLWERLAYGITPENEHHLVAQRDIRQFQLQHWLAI

## c1ccc2c(c1)N=C(N1CCNCC1)c1ccccc1S2 [N-desalkyl-quetiapine, 4-(dibenzo[b,f][1,4]thiazepin-11-yl)piperazine]
Human NET
  higher avidity for inhibiting human NET than quetiapine itself: about 100 fold
5-HT1A receptor
  more potent than quetiapine at the 5-HT1A receptor: 10 fold

## OCCOCCN1CCN(C2=Nc3ccccc3Sc3ccccc32)CC1 [fumarate]
[1]
  solubility for oral gavage dosing: not soluble enough

## OCCOCCN1CCN(C2=Nc3ccccc3Sc3ccccc32)CC1 [quetiapine, 2-(2-(4-(dibenzo[b,f][1,4]thiazepin-11-yl)piperazin-1-yl)ethoxy)ethanol]
[2]; estimated
  Absolute bioavailability: 9%
[2]; in vivo
  terminal half-life time for the drug's elimination: about 7 hours
leptin
  increase in leptin release: about 37%
